How the values were obtained:
[1] = test system: fibroblasts as donor cells; settings: donor fibroblasts cultured with agent prior to nuclear transfer; Non-patent Document 1; cited from earlier work
[2] = test system: oocytes into which nuclei from fibroblasts were transferred; assay: Expanded blastocyst formation, fibroblasts as donor cells; type: cell-based, mouse; settings: fibroblast donor nuclei; 50 nM TSA for 20 hours; FIG. 8
Description: A procedure similar to that described in Example 1 was carried out using fibroblasts or embryonic stem cells (ES cells) as donor cells in place of cumulus cells. Fibroblasts were obtained by culturing a fragment of mouse tail (Non-patent Document 11). E14 cells were used as ES cells (Non-patent Document 12).
Oocytes into which nuclei from the donor cells were transferred were treated with TSA for 20 hours, and cultured in KSOM medium without TSA until 96 hours after the initiation of activation. Then, development into expanded blastocysts was observed and the blastocyst formation rate was determined. 30 or more embryos were examined in each of the experimental groups of the respective cells.

[3] = test system: oocytes injected with mature sperm (ICSI); assay: Paternal genome DNA methylation, mature sperm injection (ICSI); type: cell-based, mouse; settings: 500 nM TSA, 20 hours
Description: The oocytes injected with the nuclear domains of round spermatids obtained by ROSI were cultured for 20 hours in the presence of 20 ng/ml of demecolcine in a medium containing 10 μM 5-azacytidine (5-aza) or 500 nM TSA as an anti-methylation agent. Similarly, injection of mature sperms was carried out (ICSI (intracytoplasmic sperm injection)). Specifically, heads of sperms were separated from the tails by applying pulses to the head-tail junctions by means of a piezo-driven pipette (PrimeTech), and injected into oocytes. The oocytes were not subjected to activation in this case. […]
For quantitative analysis of pronuclear DNA methylation levels, fluorescence images were subjected to densitometric analysis using the program Image-J from the National Institute of Health (http://rsb.info.nih.gov/ij/). For each pronucleus, the relative intensity of methylation of the paternal genome was calculated as a percentage of the fluorescence intensity of the maternal genome. In Table 3, data with (b) and without (a) anti-methylation agent were statistically analyzed by Scheffe tests for multiple mean comparisons using the statistical program SPSS version 12.0 (SPSS Inc.). […]

[4] = test system: nuclear transfer embryos; assay: Birth rate of cloned mice after implantation of treated nuclear transfer embryos; type: in vivo, mouse
Description: Based on the results of Example 3, the effect of the TSA treatment on the fetus birth rate was examined. […] after the initiation of activation and transferred to KSOM medium without TSA, and the nuclear transfer embryos transferred to KSOM medium without TSA were cultured in this medium until implantation. For producing cloned mice, embryos at the 2-cell stage were implanted into oviducts of pseudopregnant mice (surrogate mothers, day 0.5) on the day after the nuclear transfer. The pseudopregnancy treatment was carried out by mating a ICR female mouse (in estrus) with an ICR vasectomized male mouse on a one-to-one basis. The successful mating was confirmed based on the presence of plug formation. Cloned mice were delivered by cesarean section 19 days after the embryo transfer into oviduct. The ratio of the number of born cloned mouse fetuses to the number of implanted embryos (birth rate) was determined. Cloned mouse fetuses and placentas immediately after birth (left), and cloned mice (black) and a surrogate mother (white) after three weeks (right) are shown in FIG. 6.

[5] = test system: oocytes injected with nuclear domains of round spermatids (ROSI); assay: Paternal genome DNA methylation, spermatid injection (ROSI); type: cell-based, mouse; settings: 500 nM TSA
Description: The oocytes injected with the nuclear domains of round spermatids obtained by ROSI were cultured for 20 hours in the presence of 20 ng/ml of demecolcine in a medium containing 10 μM 5-azacytidine (5-aza) or 500 nM TSA as an anti-methylation agent. Similarly, injection of mature sperms was carried out (ICSI (intracytoplasmic sperm injection)). Specifically, heads of sperms were separated from the tails by applying pulses to the head-tail junctions by means of a piezo-driven pipette (PrimeTech), and injected into oocytes. The oocytes were not subjected to activation in this case.
The cultured oocytes injected with nuclei were fixed in PBS containing 4% paraformaldehyde at 4° C. overnight, washed in PBS containing 0.1% polyvinyl alcohol (PVA), and blocked in PBS containing 3% bovine serum albumin (BSA) and 0.2% Triton X-100 at 4° C. overnight. Subsequent steps were carried out at room temperature. The fixed oocytes injected with nuclei were permeabilized by treating with 0.2% Triton X-100 in PBS at room temperature. The oocytes were then treated with 2N HCl at room temperature for 50 minutes, neutralized in 100 mM Tris-HCl buffer (pH 8.0) (Non-patent Document 15), and extensively washed with PBS containing 1% BSA.
Next, incubation. with an anti-5-methylcytidine antibody (Eurogentec) in PBS containing 0.1% PVA was carried out for 2 to 3 hours. After extensively being washed, oocytes were stained with Alexa Flour-488 secondary antibody (Molecular Probes), stained with 5 μg/ml 4′,6′-diamidino-2-phenylindole (DAPI) for 30 minutes, and mounted using Vectashield (Vector Laboratory). The specimens were observed using Olympus BX51 microscope (Olympus). All images were captured with DP70 Olympus digital camera using Olympus Analysis software to apply colors to DAPI-stained DNA and merged images.
For quantitative analysis of pronuclear DNA methylation levels, fluorescence images were subjected to densitometric analysis using the program Image-J from the National Institute of Health (http://rsb.info.nih.gov/ij/). For each pronucleus, the relative intensity of methylation of the paternal genome was calculated as a percentage of the fluorescence intensity of the maternal genome. In Table 3, data with (b) and without (a) anti-methylation agent were statistically analyzed by Scheffe tests for multiple mean comparisons using the statistical program SPSS version 12.0 (SPSS Inc.). All percentile data were subjected to arcsine transformation prior to the statistical analysis.

For `CC(/C=C/C(=O)NO)=C\[C@@H](C)C(=O)c1ccc(N(C)C)cc1` [TSA, trichostatin A], the blastocyst development rate [1] is given as “increased”, the “blastocyst development rate compared with the case without TSA” value [2] is given as “higher” and the “Ratio of methylation level of paternal genome to maternal genome (%)” value [3] is given as 8.2^b %. For the same compound, the “Birth rate (%)” value ([4]; TSA 5 nM, treatment time 10 h) was 6.2%, the “Number of born fetuses” value ([4]; TSA 5 nM, treatment time 10 h, 289 implanted embryos) was 18 and the “Birth rate (%)” value ([4]; TSA 5 nM, treatment time 20 h) was 3.2%. The “Number of born fetuses” value ([4]; TSA 5 nM, treatment time 20 h, 274 implanted embryos) was 9, the “Birth rate (%)” value ([4]; TSA 50 nM, treatment time 10 h) was 7.7% and the “Number of born fetuses” value ([4]; TSA 50 nM, treatment time 10 h, 91 implanted embryos) was 7. For the same compound, the “Birth rate (%)” value ([4]; TSA 50 nM, treatment time 20 h) was 2.5%, the “Number of born fetuses” value ([4]; TSA 50 nM, treatment time 20 h, 81 implanted embryos) was 2 and the “birth rate vs control” value ([4]; TSA treatment for 10 hours or 20 hours) was “increased”. The “majority of the methylation of the paternal genome, response to TSA treatment” value [5] was “sensitive”, the “methylation of the maternal genome, response to TSA treatment” value [5] was “resistant” and the “methylation of DNA in the pericentromeric region, response to TSA” value ([5]; region with high methylation of histone H3 Lys9) was “resistant”. The “Ratio of methylation level of paternal genome to maternal genome (%)” value ([5]; Spermatid (ROSI), 20 hours) was 42.5^b %.

Source: patent US20090055945A1, “Method for Producing Nuclear-Transplanted Egg” (priority 2005, published 2009)
